Test results from ChEMBL document CHEMBL6134884, “Identification of JNJ-61803534, a RORγt Inverse Agonist for the Treatment of Psoriasis” (J Med Chem, 2025).

Assays:
[1] = target: T1, Nuclear receptor subfamily 1 group I member 3 (Homo sapiens, UniProt Q14994); experiment: Antagonist activity at CAR (unknown origin) up to 1.5 uM by mammalian 1-hybrid assay
T1 sequence (Q14994 whole entry): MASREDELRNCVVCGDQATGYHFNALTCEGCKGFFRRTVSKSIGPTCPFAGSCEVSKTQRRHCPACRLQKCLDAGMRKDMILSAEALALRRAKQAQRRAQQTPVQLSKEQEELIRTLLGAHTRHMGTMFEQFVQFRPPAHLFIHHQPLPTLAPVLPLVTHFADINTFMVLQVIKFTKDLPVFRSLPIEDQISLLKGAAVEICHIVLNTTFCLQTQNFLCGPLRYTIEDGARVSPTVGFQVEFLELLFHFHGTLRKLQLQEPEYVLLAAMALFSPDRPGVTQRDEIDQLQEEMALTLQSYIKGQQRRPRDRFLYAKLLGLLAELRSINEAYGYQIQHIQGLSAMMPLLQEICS

[2] = Oral bioavailability in male overnight fasted Beagle dog at 5 mg/kg measured 24 hrs post dose by LC-MS/MS analysis; type: ADME, organism-based, Canis lupus familiaris; settings: in vivo
[3] = Volume of distribution at steady state in male Sprague-Dawley rat at 5 mg/kg, po or 1 mg/kg, iv measured 24 hrs post dose by LC-MS/MS analysis; type: ADME, organism-based; settings: in vivo
hERG = hERG (Homo sapiens, UniProt Q12809); experiment: Inhibition of hERG at 10 uM by Q-patch clamp method relative to control; type: toxicity
Sequence of hERG (Q12809 whole entry): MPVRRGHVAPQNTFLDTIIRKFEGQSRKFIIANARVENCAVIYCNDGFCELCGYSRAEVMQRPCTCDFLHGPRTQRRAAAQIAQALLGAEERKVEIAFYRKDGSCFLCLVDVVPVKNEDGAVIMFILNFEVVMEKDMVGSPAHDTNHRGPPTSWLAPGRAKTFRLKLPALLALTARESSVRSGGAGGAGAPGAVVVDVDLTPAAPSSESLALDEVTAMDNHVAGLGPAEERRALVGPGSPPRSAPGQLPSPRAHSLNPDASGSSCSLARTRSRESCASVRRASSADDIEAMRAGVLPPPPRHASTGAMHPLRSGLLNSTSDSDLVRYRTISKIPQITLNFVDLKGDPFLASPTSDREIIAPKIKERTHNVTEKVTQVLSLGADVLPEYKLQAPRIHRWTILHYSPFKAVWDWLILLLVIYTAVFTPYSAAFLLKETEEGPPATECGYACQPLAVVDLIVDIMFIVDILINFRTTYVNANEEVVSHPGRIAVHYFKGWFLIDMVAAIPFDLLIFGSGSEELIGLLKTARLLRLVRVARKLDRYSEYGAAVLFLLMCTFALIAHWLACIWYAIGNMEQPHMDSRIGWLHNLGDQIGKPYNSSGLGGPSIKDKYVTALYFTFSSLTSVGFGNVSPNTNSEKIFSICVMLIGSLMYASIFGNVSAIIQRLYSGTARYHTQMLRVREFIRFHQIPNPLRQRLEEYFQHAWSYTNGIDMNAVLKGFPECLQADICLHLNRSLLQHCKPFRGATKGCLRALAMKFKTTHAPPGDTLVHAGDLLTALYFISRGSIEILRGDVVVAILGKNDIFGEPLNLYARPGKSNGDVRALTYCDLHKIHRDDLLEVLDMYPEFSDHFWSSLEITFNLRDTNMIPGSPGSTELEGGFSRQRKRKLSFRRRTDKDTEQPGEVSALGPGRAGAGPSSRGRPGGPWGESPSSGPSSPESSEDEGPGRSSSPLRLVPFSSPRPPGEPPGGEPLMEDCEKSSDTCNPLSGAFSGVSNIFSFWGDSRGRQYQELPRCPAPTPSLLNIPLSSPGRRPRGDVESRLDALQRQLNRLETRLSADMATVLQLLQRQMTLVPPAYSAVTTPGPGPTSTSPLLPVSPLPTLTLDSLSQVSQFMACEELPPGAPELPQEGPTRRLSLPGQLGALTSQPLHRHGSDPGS

[4] = Solubility of compound in SGF; type: physicochemical
[5] = Aqueous solubility of the compound at pH 7; type: physicochemical; settings: aqueous solution
[6] = Half life in male Sprague-Dawley rat at 5 mg/kg, po or 1 mg/kg, iv measured 24 hrs post dose by LC-MS/MS analysis; type: ADME, organism-based; settings: in vivo
PXR [7] = target: T2, PXR (Homo sapiens, UniProt O75469); experiment: Activation of human PXR at 10 uM relative to control; type: toxicity; settings: read-out: Activity
T2 sequence (O75469 whole entry): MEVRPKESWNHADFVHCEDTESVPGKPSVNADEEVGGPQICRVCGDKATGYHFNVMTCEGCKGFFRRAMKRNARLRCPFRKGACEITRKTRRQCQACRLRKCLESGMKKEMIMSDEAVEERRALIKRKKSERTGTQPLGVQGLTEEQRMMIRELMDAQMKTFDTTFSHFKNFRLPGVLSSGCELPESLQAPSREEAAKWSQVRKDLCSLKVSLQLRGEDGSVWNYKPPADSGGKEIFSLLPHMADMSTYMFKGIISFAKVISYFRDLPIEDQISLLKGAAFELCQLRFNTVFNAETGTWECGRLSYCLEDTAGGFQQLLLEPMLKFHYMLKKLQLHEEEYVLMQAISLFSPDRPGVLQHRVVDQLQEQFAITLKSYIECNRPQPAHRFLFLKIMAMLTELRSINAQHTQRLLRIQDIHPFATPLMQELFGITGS

[8] = Plasma protein binding in human assessed as unbound fraction; type: ADME, cell-free
[9] = Inverse agonist activity at RORgammat in rat whole blood assessed as IL-17A production incubated for 1 hrs by ELISA analysis; type: tissue-based
[10] = target: T3, Nuclear receptor subfamily 1 group I member 2 (Homo sapiens, UniProt O75469); experiment: Activation of human PXR at 1 uM relative to control; type: toxicity
T3 sequence (O75469 whole entry): T2 sequence (O75469 whole entry)

[11] = Oral bioavailability in male Sprague-Dawley rat at 5 mg/kg measured 24 hrs post dose by LC-MS/MS analysis; type: ADME, organism-based; settings: in vivo
[12] = Aqueous solubility of the compound at pH 2; type: physicochemical; settings: aqueous solution
[13] = Genotoxicity in Salmonella typhimurium by Ames II test; type: toxicity; settings: salmonella enterica subsp. enterica serovar typhimurium
Cytochrome P450 2C8 = target: T4, Cytochrome P450 2C8 (Homo sapiens, UniProt P10632); experiment: Inhibition of human CYP2C8; type: ADME
T4 sequence (P10632 whole entry): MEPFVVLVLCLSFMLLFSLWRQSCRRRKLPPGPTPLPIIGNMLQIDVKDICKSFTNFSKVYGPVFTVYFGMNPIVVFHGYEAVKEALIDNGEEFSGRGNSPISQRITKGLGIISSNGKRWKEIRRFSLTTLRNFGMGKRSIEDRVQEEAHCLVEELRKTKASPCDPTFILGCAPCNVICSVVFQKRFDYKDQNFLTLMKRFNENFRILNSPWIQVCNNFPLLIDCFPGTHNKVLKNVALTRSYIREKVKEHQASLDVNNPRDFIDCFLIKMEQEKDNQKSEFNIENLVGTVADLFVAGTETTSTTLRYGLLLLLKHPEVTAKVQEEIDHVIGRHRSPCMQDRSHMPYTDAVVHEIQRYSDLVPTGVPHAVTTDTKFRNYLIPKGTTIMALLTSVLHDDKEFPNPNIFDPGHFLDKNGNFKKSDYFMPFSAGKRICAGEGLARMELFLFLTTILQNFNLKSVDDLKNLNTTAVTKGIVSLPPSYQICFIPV

Cytochrome P450 2C9 = Cytochrome P450 2C9 (Homo sapiens, UniProt P11712); experiment: Inhibition of human CYP2C9; type: ADME
Sequence of Cytochrome P450 2C9 (P11712 whole entry): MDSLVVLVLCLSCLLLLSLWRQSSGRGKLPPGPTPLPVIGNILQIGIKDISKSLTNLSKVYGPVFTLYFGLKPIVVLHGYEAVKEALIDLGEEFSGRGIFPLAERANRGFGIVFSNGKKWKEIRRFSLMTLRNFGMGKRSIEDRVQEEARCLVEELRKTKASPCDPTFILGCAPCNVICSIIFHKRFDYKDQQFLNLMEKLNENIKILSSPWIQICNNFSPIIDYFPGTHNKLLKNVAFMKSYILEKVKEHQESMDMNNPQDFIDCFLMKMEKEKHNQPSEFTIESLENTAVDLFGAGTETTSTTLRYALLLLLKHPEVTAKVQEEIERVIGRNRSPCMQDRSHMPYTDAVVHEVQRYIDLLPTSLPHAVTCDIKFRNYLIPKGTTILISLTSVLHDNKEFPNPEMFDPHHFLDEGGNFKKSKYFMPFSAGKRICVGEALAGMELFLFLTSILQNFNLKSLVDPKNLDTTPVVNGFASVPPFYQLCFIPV

Cytochrome P450 3A4 [14] = target: T5, Cytochrome P450 3A4 (Homo sapiens, UniProt P08684); experiment: Time dependent inhibition of CYP3A4 (unknown origin); type: ADME
T5 sequence (P08684 whole entry): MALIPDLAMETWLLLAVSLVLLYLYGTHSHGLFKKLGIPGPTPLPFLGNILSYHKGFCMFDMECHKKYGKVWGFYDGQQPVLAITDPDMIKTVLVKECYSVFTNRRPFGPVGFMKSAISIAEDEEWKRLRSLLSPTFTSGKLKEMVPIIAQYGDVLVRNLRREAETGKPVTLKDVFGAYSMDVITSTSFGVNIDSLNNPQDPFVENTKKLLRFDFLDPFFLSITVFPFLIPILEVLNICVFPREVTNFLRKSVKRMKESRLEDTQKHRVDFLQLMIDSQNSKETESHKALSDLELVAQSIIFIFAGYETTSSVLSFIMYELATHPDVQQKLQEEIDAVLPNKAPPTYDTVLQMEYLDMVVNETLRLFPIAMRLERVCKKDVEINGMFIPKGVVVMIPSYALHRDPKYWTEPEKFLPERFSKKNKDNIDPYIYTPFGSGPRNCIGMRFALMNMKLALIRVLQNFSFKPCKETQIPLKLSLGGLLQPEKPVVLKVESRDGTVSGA

[15] = Volume of distribution at steady state in male overnight fasted Beagle dog at 5 mg/kg, po or 1 mg/kg, iv measured 24 hrs post dose by LC-MS/MS analysis; type: ADME, organism-based, Canis lupus familiaris; settings: in vivo
[16] = Half life in male overnight fasted Beagle dog at 5 mg/kg, po or 1 mg/kg, iv measured 24 hrs post dose by LC-MS/MS analysis; type: ADME, organism-based, Canis lupus familiaris; settings: in vivo
[17] = Metabolic stability in rat liver microsomes assessed as half life; type: ADME, Microsome
Cytochrome P450 3A4 [18] = target: T5, Cytochrome P450 3A4; experiment: Inhibition of human CYP3A4; type: ADME
[19] = Plasma protein binding in dog assessed as unbound fraction; type: ADME, cell-free, Canis lupus familiaris
[20] = Plasma protein binding in rat assessed as unbound fraction; type: ADME, cell-free
[21] = Metabolic stability in human liver microsomes assessed as half life; type: ADME, Microsome
[22] = target: T6, Nuclear receptor ROR-gamma (Mus musculus, UniProt P51450); experiment: Inverse agonist activity at RORgammat in mouse whole blood assessed as IL-17A production incubated for 1 hrs by ELISA analysis
T6 sequence (P51450 whole entry): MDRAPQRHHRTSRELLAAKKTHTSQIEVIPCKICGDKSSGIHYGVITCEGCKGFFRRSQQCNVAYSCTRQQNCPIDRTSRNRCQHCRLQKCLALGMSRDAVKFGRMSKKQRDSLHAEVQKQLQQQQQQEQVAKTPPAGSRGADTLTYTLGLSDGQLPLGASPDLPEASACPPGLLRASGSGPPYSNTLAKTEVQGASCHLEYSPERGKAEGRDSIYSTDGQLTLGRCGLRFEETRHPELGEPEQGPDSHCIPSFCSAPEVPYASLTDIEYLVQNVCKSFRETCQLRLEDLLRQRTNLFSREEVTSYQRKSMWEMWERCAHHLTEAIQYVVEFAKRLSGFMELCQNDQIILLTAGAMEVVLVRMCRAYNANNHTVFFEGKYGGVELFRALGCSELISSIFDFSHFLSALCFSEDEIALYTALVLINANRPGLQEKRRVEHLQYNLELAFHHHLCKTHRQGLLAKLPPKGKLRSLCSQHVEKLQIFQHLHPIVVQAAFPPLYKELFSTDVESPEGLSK

Cytochrome P450 2C19 = Cytochrome P450 2C19 (Homo sapiens, UniProt P33261); experiment: Inhibition of human CYP2C19; type: ADME
Sequence of Cytochrome P450 2C19 (P33261 whole entry): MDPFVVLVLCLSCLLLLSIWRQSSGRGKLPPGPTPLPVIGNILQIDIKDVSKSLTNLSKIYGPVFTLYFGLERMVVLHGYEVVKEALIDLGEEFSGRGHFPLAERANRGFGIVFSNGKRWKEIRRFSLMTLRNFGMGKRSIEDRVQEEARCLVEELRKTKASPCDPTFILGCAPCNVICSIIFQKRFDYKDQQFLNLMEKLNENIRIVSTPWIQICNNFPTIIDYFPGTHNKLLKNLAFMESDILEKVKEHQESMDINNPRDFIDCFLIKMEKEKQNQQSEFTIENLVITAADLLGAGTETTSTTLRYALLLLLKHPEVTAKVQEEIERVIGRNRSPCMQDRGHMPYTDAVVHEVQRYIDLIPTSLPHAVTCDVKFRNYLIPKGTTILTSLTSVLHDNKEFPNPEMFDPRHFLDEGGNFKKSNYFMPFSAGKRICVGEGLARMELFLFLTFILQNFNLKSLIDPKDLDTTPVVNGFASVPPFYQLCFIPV

Cytochrome P450 3A4 [23] = target: T5, Cytochrome P450 3A4; experiment: Induction of CYP3A4 in human hepatocytes at 10 uM relative to control; type: ADME, cell-based, Hepatocyte
[24] = target: T1, Nuclear receptor subfamily 1 group I member 3; experiment: Agonist activity at CAR (unknown origin) up to 1.5 uM by mammalian 1-hybrid assay
[25] = target: Voltage-gated inwardly rectifying potassium channel KCNH2 (Homo sapiens, UniProt Q12809); experiment: Inhibition of hERG by Q-patch clamp method; type: toxicity
Sequence of Voltage-gated inwardly rectifying potassium channel KCNH2 (Q12809 whole entry): as the sequence (Q12809 whole entry) above

[26] = Solubility of compound in FaSSIF; type: physicochemical
[27] = Metabolic stability in mouse liver microsomes assessed as half life; type: ADME, Microsome
Cytochrome P450 2D6 = Cytochrome P450 2D6 (Homo sapiens, UniProt P10635); experiment: Inhibition of human CYP2D6; type: ADME
Sequence of Cytochrome P450 2D6 (P10635 whole entry): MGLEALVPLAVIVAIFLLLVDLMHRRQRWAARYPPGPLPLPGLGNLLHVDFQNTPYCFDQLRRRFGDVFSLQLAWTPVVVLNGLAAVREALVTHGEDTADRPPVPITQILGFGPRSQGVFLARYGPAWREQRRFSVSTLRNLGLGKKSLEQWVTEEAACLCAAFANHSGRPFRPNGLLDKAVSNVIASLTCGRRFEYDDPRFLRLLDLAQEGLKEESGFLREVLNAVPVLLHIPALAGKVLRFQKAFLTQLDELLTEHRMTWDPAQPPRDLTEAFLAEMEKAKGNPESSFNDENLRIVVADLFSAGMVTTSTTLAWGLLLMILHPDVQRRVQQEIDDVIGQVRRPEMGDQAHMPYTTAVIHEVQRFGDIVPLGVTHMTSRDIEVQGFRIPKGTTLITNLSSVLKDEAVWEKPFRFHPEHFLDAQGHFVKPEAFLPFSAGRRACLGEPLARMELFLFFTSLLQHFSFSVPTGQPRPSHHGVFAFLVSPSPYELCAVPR

[28] = Plasma protein binding in mouse assessed as unbound fraction; type: ADME, cell-free
PXR [29] = target: T2, PXR; experiment: Activation of human PXR at 5 uM relative to control; type: toxicity; settings: read-out: Activity

Activity [1]: Not_active
bioavailability [2]: 100%
Vdss [3]: 1.3 L/kg
solubility [4]: < 4 µM
solubility [5]: < 4 µM
half-life [6]: 4.1 h
fraction unbound [8]: 0.008
IC50 [9]: 0.12 µM
bioavailability [11]: 69%
solubility [12]: < 4 µM
IC50 (Cytochrome P450 2C8): 18 µM
IC50 (Cytochrome P450 2C9): 4.4 µM
TDI (Cytochrome P450 3A4 [14]): Not_active
Vdss [15]: 1.5 L/kg
half-life [16]: 26.2 h
half-life [17]: > 3 h
IC50 (Cytochrome P450 3A4 [18]): 20 µM
fraction unbound [19]: 0.009
fraction unbound [20]: 0.012
half-life [21]: > 3 h
IC50 [22]: 0.21 µM
IC50 (Cytochrome P450 2C19): 31 µM
Activity (Cytochrome P450 3A4 [23]): 26%
Activity [24]: Not_active
solubility [26]: < 4 µM
half-life [27]: > 3 h
IC50 (Cytochrome P450 2D6): 3.8 µM
fraction unbound [28]: 0.008
SMILES: C[C@H]1CCCN1C(=O)c1nc(C(=O)NCC(C)(C)O)sc1-c1ccc(C(O)(C(F)(F)F)C(F)(F)F)c(Cl)c1Cl
inhibition at 10 µM (hERG): 52%
activity at 10 µM (PXR [7]): 42%
Activity [10]: 18%
Activity [13]: Non-toxic
IC50 [25]: 29.5 µM
activity at 5 µM (PXR [29]): 21%
